Data on seven molecules can be found in US12478617B2, “Lipidated peptide inhibitors of interleukin-23 receptor” (JANSSEN BIOTECH, INC., priority 2021, dated 2025).

Starred links: 1 amine or outer side, 2 acyl side, 3 side chain; linkers in the order of their positions; H or OH if unused. Positions of bridges follow the written chain, without caps; N, C: chain ends. Non-standard residues stand in square brackets, D forms with d. Residues, ends and D or L forms follow the SMILES beside them. Groups on a side chain read outwards from the residue. *: point of attachment. Decanoyl(10-(4-HOOC-PhO)) = O=C(O)c1ccc(OCCCCCCCCCC(=O)*)cc1; Trp(7-Me) = Cc1cccc2c(C[C@H](N)C(=O)O)c[nH]c12; C20 diacid = O=C(O)CCCCCCCCCCCCCCCCCCC(=O)*; C18 diacid = O=C(O)CCCCCCCCCCCCCCCCC(=O)*; C16 diacid = O=C(O)CCCCCCCCCCCCCCC(=O)*; γGlu = O=C(O)[C@H](CCC(=O)[*:2])N[*:1]; 2Nal = N[C@@H](Cc1ccc2ccccc2c1)C(=O)O; AEF = NCCOc1ccc(C[C@H](N)C(=O)O)cc1; PEG6 = NCCOCCOCCOCCOCCOCCOCCC(=O)O; Stearoyl = CCCCCCCCCCCCCCCCCC(=O)*; Trx = NC[C@H]1CC[C@H](C(=O)O)CC1; 3Pal = N[C@@H](Cc1cccnc1)C(=O)O; Pen = CC(C)(S)[C@H](N)C(=O)O; Thp = NC1(C(=O)O)CCOCC1; AEEA = NCCOCCOCC(=O)O; Sar = CNCC(=O)O

As usually defined, the IC50 is the concentration at which inhibition is half-maximal. Higher therefore signals weaker potency.

In this test the target is T1, IL-23R (Homo sapiens, UniProt Q5VWK5).
T1 construct: HEK293 cells containing IL-23R, IL-12RP31 and a firefly luciferase reporter gene driven by a STAT-inducible promoter (Promega); host or cells: HEK293
T1 sequence (Q5VWK5 24-629): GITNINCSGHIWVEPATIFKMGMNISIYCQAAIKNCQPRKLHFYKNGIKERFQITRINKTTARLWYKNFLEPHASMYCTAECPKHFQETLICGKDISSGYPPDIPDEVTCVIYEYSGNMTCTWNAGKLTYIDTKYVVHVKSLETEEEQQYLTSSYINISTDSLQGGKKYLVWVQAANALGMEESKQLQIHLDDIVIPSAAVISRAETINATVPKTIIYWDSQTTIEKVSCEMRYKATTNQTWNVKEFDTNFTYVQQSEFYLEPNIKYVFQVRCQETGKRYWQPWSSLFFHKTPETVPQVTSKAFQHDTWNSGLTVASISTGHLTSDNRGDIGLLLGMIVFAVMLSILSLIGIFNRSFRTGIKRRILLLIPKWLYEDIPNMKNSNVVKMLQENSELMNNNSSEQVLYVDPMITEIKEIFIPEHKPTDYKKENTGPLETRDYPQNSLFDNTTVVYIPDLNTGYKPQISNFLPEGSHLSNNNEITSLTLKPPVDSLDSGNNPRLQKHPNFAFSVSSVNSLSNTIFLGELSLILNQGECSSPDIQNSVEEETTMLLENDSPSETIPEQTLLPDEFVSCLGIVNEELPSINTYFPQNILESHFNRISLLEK
In words: IL23R Reporter Assay. The test is classed as cell-based. The source says: IL-23 binding to IL-23 receptors results in the activation of the Signal Transducer and Activator of Transcription 3 (STAT3) by phosphorylation and downstream signaling events. Accordingly. the ability of the inhibitors described herein to block IL-23 action can be assessed by monitoring the status of STAT3 activation in response to IL-23. This may be accomplished in reporter cell assays or in intact cells such as peripheral blood mononuclear cells (PBMCs).
Compounds were serially diluted in 100% (v/v) DMSO) and plated using an Echo acoustic dispenser (Labcyte) into 1536-well non-treated black assay plates (Corning #9146). […] After 5 h at 37° C., 5% CO2, 95% relative humidity, cells were placed at 20° C. and treated with BioGlo reagent (Promega) according to the Manufacturer's instructions. Luminescence was measured on a Pherastar FSX (BMG LabTech).
(In general: Reporter assays use an easily measured gene product as a stand-in for the process of interest.)
The molecule `CC(=O)NCCCC[C@@H]1NC(=O)[C@H](Cc2c[nH]c3c(C)cccc23)NC(=O)[C@H]([C@@H](C)O)NC(=O)[C@H](CCCCNC(=O)COCCOCCNC(=O)COCCOCCNC(=O)CC[C@H](NC(=O)CCCCCCCCCCCCCCCCC(=O)O)C(=O)O)NC(=O)[C@@H](NC(=O)[C@@H](CCCNC(=N)N)NC(C)=O)C(C)(C)SSC(C)(C)[C@@H](C(=O)N[C@@H](Cc2ccc(OCCN)cc2)C(=O)N[C@@H](Cc2ccc3ccccc3c2)C(=O)NC2(C(=O)N[C@@H](CCC(=O)O)C(=O)N[C@@H](CC(N)=O)C(=O)N[C@@H](Cc3cccnc3)C(=O)N(C)CC(N)=O)CCOCC2)NC1=O` [Example 20, MeCO-r-Pen*-K(PEG2PEG2gEC18OH)-T-7MeW-K(Ac)-Pen*-AEF-2Nal-THP-E-N-3Pya-Sar-CONH2] (Ac-[dR][Pen]K([AEEA-AEEA-γGlu-C18 diacid])T[Trp(7-Me)]K(Ac)[Pen][AEF][2Nal][Thp]EN[3Pal][Sar]-NH2; disulfide 2-7) returned an IC50 of 0.067 nM. This lies in the picomolar range.

Molecule `CC(=O)NCCCC[C@@H]1NC(=O)[C@H](Cc2c[nH]c3c(C)cccc23)NC(=O)[C@H]([C@@H](C)O)NC(=O)[C@H](CCCCNC(=O)COCCOCCNC(=O)COCCOCCNC(=O)[C@@H]2CCCN2C(=O)CC[C@H](NC(=O)CCCCCCCCCCCCCCCCC(=O)O)C(=O)O)NC(=O)[C@@H](NC(=O)[C@@H](CCCNC(=N)N)NC(C)=O)C(C)(C)SSC(C)(C)[C@@H](C(=O)N[C@@H](Cc2ccc(OCCN)cc2)C(=O)N[C@@H](Cc2ccc3ccccc3c2)C(=O)NC2(C(=O)N[C@@H](CCCCNC(C)=O)C(=O)N[C@@H](CC(N)=O)C(=O)N[C@@H](Cc3cccnc3)C(=O)N(C)CC(N)=O)CCOCC2)NC1=O` [Example 95, MeCO-r-Pen*-K(PEG2PEG2PgEC18OH)-T-7MeW-K(Ac)-Pen*-AEF-2Nal-THP-K(Ac)-N-3Pya-Sar-CONH2] (Ac-[dR][Pen]K([AEEA-AEEA-Pro-γGlu-C18 diacid])T[Trp(7-Me)]K(Ac)[Pen][AEF][2Nal][Thp]K(Ac)N[3Pal][Sar]-NH2; disulfide 2-7) had an IC50 of 0.14 nM.

`CCCCCCCCCCCCCCCCCC(=O)N[C@@H](CCC(=O)NCCCC[C@@H](NC(C)=O)C(=O)N[C@@H]1C(=O)N[C@@H](CC(N)=O)C(=O)N[C@@H]([C@@H](C)O)C(=O)N[C@@H](Cc2c[nH]c3c(C)cccc23)C(=O)N[C@@H](CCCCNC(C)=O)C(=O)N[C@H](C(=O)N[C@@H](Cc2ccc(OCCN)cc2)C(=O)N[C@@H](Cc2ccc3ccccc3c2)C(=O)NC2(C(=O)N[C@@H](CCCCNC(C)=O)C(=O)N[C@@H](CC(N)=O)C(=O)N[C@@H](Cc3cccnc3)C(=O)N(C)CC(N)=O)CCOCC2)C(C)(C)SSC1(C)C)C(=O)O` [Example 68, MeCO-k(gEC18)-Pen*-N-T-7MeW-K(Ac)-Pen*-AEF-2Nal-THP-K(Ac)-N-3Pya-Sar-CONH2] (Ac-[dK]([γGlu-Stearoyl])[Pen]NT[Trp(7-Me)]K(Ac)[Pen][AEF][2Nal][Thp]K(Ac)N[3Pal][Sar]-NH2; disulfide 2-7) registered an IC50 of 0.037 nM.

`CC(=O)NCCCC[C@@H]1NC(=O)[C@H](Cc2c[nH]c3c(C)cccc23)NC(=O)[C@H]([C@@H](C)O)NC(=O)[C@H](CC(N)=O)NC(=O)[C@@H](NC(C)=O)C(C)(C)SSC(C)(C)[C@@H](C(=O)N[C@@H](Cc2ccc(OCCN)cc2)C(=O)N[C@@H](Cc2ccc3ccccc3c2)C(=O)NC2(C(=O)N[C@@H](CCCCNC(=O)COCCOCCNC(=O)CC[C@H](NC(=O)CCCCCCCCCCCCCCC(=O)O)C(=O)O)C(=O)N[C@@H](CC(N)=O)C(=O)N[C@@H](Cc3cccnc3)C(=O)N(C)CC(N)=O)CCOCC2)NC1=O` [Example 34, MeCO-Pen*-N-T-7MeW-K(Ac)-Pen*-AEF-2Nal-THP-K(PEG2gEC16OH)-N-3Pya-Sar-CONH2] (Ac-[Pen]NT[Trp(7-Me)]K(Ac)[Pen][AEF][2Nal][Thp]K([AEEA-γGlu-C16 diacid])N[3Pal][Sar]-NH2; disulfide 1-6) returned an IC50 of 0.065 nM.

`CC(=O)NCCCC[C@@H]1NC(=O)[C@H](Cc2c[nH]c3c(C)cccc23)NC(=O)[C@H]([C@@H](C)O)NC(=O)[C@H](CC(N)=O)NC(=O)[C@@H](NC(C)=O)C(C)(C)SSC(C)(C)[C@@H](C(=O)N[C@@H](Cc2ccc(OCCN)cc2)C(=O)N[C@@H](Cc2ccc3ccccc3c2)C(=O)NC2(C(=O)N[C@@H](CCCCNC(=O)COCCOCCNC(=O)COCCOCCNC(=O)CC[C@H](NC(=O)[C@H]3CC[C@H](CNC(=O)CCCCCCCCCCCCCCCCCCC(=O)O)CC3)C(=O)O)C(=O)N[C@@H](CC(N)=O)C(=O)N[C@@H](Cc3cccnc3)C(=O)N(C)CC(N)=O)CCOCC2)NC1=O` [Example 128, MeCO-Pen*-N-T-7MeW-K(Ac)-Pen*-AEF-2Nal-THP-K(PEG2PEG2gETrxC20OH)-N-3Pya-Sar-CONH2] (Ac-[Pen]NT[Trp(7-Me)]K(Ac)[Pen][AEF][2Nal][Thp]K([AEEA-AEEA-γGlu-Trx-C20 diacid])N[3Pal][Sar]-NH2; disulfide 1-6) displayed an IC50 of 0.1 nM.

As to `CC(=O)NCCCC[C@@H]1NC(=O)[C@H](Cc2c[nH]c3c(C)cccc23)NC(=O)[C@H]([C@@H](C)O)NC(=O)[C@H](CC(N)=O)NC(=O)[C@@H](NC(C)=O)C(C)(C)SSC(C)(C)[C@@H](C(=O)N[C@@H](Cc2ccc(OCCN)cc2)C(=O)N[C@@H](Cc2ccc3ccccc3c2)C(=O)NC2(C(=O)N[C@@H](CCCCNC(=O)COCCOCCNC(=O)COCCOCCNC(=O)CC[C@H](NC(=O)CCCCCCCCCOc3ccc(C(=O)O)cc3)C(=O)O)C(=O)N[C@@H](CC(N)=O)C(=O)N[C@@H](Cc3cccnc3)C(=O)N(C)CC(N)=O)CCOCC2)NC1=O` [Example 111, MeCO-Pen*-N-T-7MeW-K(Ac)-Pen*-AEF-2Nal-THP-K(PEG2PEG2gEpXOH)-N-3Pya-Sar-CONH2] (Ac-[Pen]NT[Trp(7-Me)]K(Ac)[Pen][AEF][2Nal][Thp]K([AEEA-AEEA-γGlu-Decanoyl(10-(4-HOOC-PhO))])N[3Pal][Sar]-NH2; disulfide 1-6), the IC50 is 0.048 nM.

The molecule `CC(=O)NCCCC[C@@H]1NC(=O)[C@H](Cc2c[nH]c3c(C)cccc23)NC(=O)[C@H]([C@@H](C)O)NC(=O)[C@H](CC(N)=O)NC(=O)[C@@H](NC(C)=O)C(C)(C)SSC(C)(C)[C@@H](C(=O)N[C@@H](Cc2ccc(OCCN)cc2)C(=O)N[C@@H](Cc2ccc3ccccc3c2)C(=O)NC2(C(=O)N[C@@H](CCCCNC(=O)CCOCCOCCOCCOCCOCCOCCNC(=O)CCOCCOCCOCCOCCOCCOCCNC(=O)CC[C@H](NC(=O)CCCCCCCCCCCCCCCCC(=O)O)C(=O)O)C(=O)N[C@@H](CC(N)=O)C(=O)N[C@@H](Cc3cccnc3)C(=O)N(C)CC(N)=O)CCOCC2)NC1=O` [Example 43, MeCO-Pen*-N-T-7MeW-K(Ac)-Pen*-AEF-2Nal-THP-K(PEG6PEG6gEC18OH)-N-3Pya-Sar-CONH2] (Ac-[Pen]NT[Trp(7-Me)]K(Ac)[Pen][AEF][2Nal][Thp]K([PEG6-PEG6-γGlu-C18 diacid])N[3Pal][Sar]-NH2; disulfide 1-6) displayed a half-inhibitory concentration (IC50) of 0.049 nM. The IC50 values of the last two molecules are within 1.5-fold of each other.
